From paper PMC10609854 (Pharmaceuticals, 2023)
“And” between values parts separate entries of the source, which are not always exact repeats. Identical values can stand only once.

Columns and labels:
eqBuChE = test system: eqBuChE; set-up: method as in PMID 34208297; details: cited from earlier work
[1] = test system: carrageenan-induced mechanical hyperalgesia; assay: carrageenan-induced mechanical hyperalgesia (Randall-Selitto); assay type: in vivo; details: rats, 3 h after carrageenan, vehicle 87.8%
Description: (§1) The acute, local inflammation and paw edema was induced by subplantar injection of 0.1 mL of 1% carrageenan (made in PBS) into the rat right hind paw. The paw volume was measured using the dislocation of the water column of the plethysmometer (Plethysmometr 7140, Ugo Basile) before and at 1, 2, and 3 h after subplantar injection of carrageenan.
Furthermore, to assess the heightened sensitivity to mechanical stimuli, we employed the pain pressure threshold test. This involved applying increasing pressure to the dorsal surface of the right hind paw using an automated gauge (Analgesy Meter 37215, Ugo Basile, Gemonio, Italy), following the method outlined by Randall and Selitto. The force’s intensity, measured in grams, was recorded when the paw was withdrawn (withdrawal threshold). For each animal, withdrawal thresholds were recorded both prior to the administration of carrageenan and three hours afterward. The results were expressed as a percentage of the initial reaction, with the nociceptive response before carrageenan administration considered as the baseline (100% response).

CQ-induced pruritus = assay: chloroquine (CQ)-induced pruritus; assay type: in vivo, mice; details: mice, 2.5, 5, 10 and 15 mg/kg i.p.; 30 min observation
Description: The area (around 2 cm^2) of the nape of mice was shaved at least 2 days prior to experiments. On the day of the experiment, each mouse was individually placed in plastic chambers (15 × 15 × 30 cm). After the 30 min period of habituation, the mice received an intradermal (i.d.) injection of histamine dihydrochloride (10 µmol/site), chloroquine (CQ, 200 µg/site), or SLIGRL-NH2 (40 nmol/site), which were dissolved in physiological saline and administrated at the constant volume of 20 μL. Immediately following the injection, scratching (series of movements considered as a single scratching bout usually consisted of three single scratches) of the injected site by the hind paw was counted for 60 min, 30 min, or 45 min after histamine, CQ, and SLIGRL-NH2 injection, respectively.

[2] = test system: carrageenan-induced edema; assay: carrageenan-induced paw edema; assay type: in vivo; details: rats, 30 mg/kg
Description: as §1

H3R = test system: H3R; set-up: method as in PMID 28797771; details: read-out: IC50, cAMP accumulation assay (H3R antagonist potency); cited from earlier work
human μ opioid receptor = molecular target: T1, human μ opioid receptor (Homo sapiens, UniProt P35372); assay: radioligand binding, human opioid μ receptor ([3H]DAMGO, HEK293 cells)
T1 construct: host or cells: HEK293 cells
T1 sequence (P35372 whole entry): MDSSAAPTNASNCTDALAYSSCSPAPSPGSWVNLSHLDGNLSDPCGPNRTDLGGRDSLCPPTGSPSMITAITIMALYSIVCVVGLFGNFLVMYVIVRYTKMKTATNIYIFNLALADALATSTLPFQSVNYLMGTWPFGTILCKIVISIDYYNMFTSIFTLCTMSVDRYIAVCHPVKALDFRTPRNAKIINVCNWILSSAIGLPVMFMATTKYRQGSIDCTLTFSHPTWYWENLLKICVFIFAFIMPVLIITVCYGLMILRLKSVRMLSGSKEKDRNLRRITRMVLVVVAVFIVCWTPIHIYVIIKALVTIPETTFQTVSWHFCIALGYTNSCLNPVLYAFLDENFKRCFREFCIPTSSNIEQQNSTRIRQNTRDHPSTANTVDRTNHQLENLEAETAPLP

[3] = test system: spontaneous locomotor activity; assay: spontaneous locomotor activity; assay type: in vivo; details: mice
Description: The mean number of light-beam crossings in the vehicle-treated animals was 1.51 ± 0.13 x 103, measured during the 30 min-long period of observation. The test compound at a dose of 30 mg/kg […]
effect [F(2,21) = 4.43, p < 0.05] (Figure S1).
Figure S1. […] The test compound or vehicle (1% solution of Tween 80) were administered 30 min intraperitoneally (i.p.) before the beginning of the test. The results are presented as bar plots showing the mean ± SEM. Statistical analysis: one-way ANOVA followed by Dunnett’s post hoc test, * p < 0.05, n = 8 mice per group.
time spent on the rotarod apparatus was 60 seconds for each control mouse. The same effect was observed in the E153- treated mice. […]
impaired the motor coordination of mice at any tested speed [F(2,15) = 0.41, p=0.67] (Figure S2). We

[4] = test system: OXPT-induced tactile allodynia; assay: oxaliplatin-induced neuropathic pain, von Frey test; assay type: in vivo; details: mice
Description: Neuropathy was induced by administering a single dose (10 mg/kg) of Oxaliplatin (OXPT) dissolved in a 5% glucose solution (Polfa Kutno, Poland). To assess the response to mechanical stimuli, the von Frey test was carried with application of the electronic von Frey unit (Bioseb, France). The apparatus contained a single flexible filament, which was used to apply increasing force ranging from 0 to 10 g to the plantar surface of the mouse’s hind paw. The crossing of pain threshold led to the paw withdrawal. The mechanical pressure that evoked the nocifensive response was subsequently recorded. The measurement was performed before the OXPT administration and 7 days afterwards. The compounds were administrated to the animals with developed mechanical allodynia observed as a statistically significant decrease in pain threshold. On the day of the experiment, each mouse was placed in an observation chamber with a wire mesh bottom and was allowed to habituate for 1 h. After the habituation period, the mouse pain threshold was tested 3 times alternately with at least a 30 s gap between each measurement. The mean of these three consecutive measurements was taken as a baseline value. The mice with tactile allodynia were i.p. pretreated with the tested compound or their combinations, and 30 min later the animals were tested again according to the same procedure.

hMAO B = test system: hMAO B; set-up: method as in PMID 34208297; details: cited from earlier work
[5] = up to 10 μM; cited from earlier work
[6] = test system: carrageenan-induced thermal hyperalgesia; assay: carrageenan-induced thermal hyperalgesia (plantar test); assay type: in vivo; details: rats
Description: as §1
To evaluate the heightened sensitivity to thermal stimuli, we employed a plantar test apparatus (Commat Ltd., Ankara, Turkey). Rats were individually placed in plexiglass chambers and allowed to acclimatize for 20 to 30 min before testing. A radiant heat source was positioned beneath the chamber floor, directly under the hind paw. The time it took for the paw to withdraw in response to the heat was automatically recorded by a photocell and an electronic timer. The intensity of the radiant heat was adjusted to achieve baseline withdrawal times of 10–15 s, and a preset cut-off time of 30 s was established to prevent tissue damage. […] Three successive applications of the heating stimulus were performed, with 1- to 2-minute intervals between them, and the mean of these measurements was calculated. Paw withdrawal latency was recorded for each animal before carrageenan administration and at 1, 2, and 3 h afterward.

[7] = molecular target: human histamine H3 receptor; set-up: method as in PMID 28797771; details: [3H]Nα-methylhistamine in HEK293 cells; cited from earlier work

**Q.** For O=C(O)C(=O)O.c1ccc(-c2ccc(OCCCCCN3CCCCCC3)cc2)cc1 [Compound E153, 1-(5-(4-Phenylphenoxy)pentyl)azepane hydrogen oxalate], which IC50 (eqBuChE) is on record?
**A.** 590 nM

**Q.** And the “mechanical pain threshold, % of baseline” value ([1]; 15 mg/kg)?
**A.** 112.5%

**Q.** And the “mechanical pain threshold, % of baseline” value ([1]; 30 mg/kg)?
**A.** 111.8%

**Q.** And the “number of scratch bouts, CQ-induced pruritus” value (CQ-induced pruritus)?
**A.** significantly decreased

**Q.** And the “paw volume increase, carrageenan edema” value ([2]; 1 h after carrageenan, vehicle 51.1%)?
**A.** 27.1%

**Q.** What about the “paw volume increase, carrageenan edema” value ([2]; 2 h after carrageenan, vehicle 102.4%) of the same molecule?
**A.** 45.4%

**Q.** What about the “paw volume increase, carrageenan edema” value ([2]; 3 h after carrageenan, vehicle 123.5%) of the same molecule?
**A.** 42.6%

**Q.** And the IC50 (H3R)?
**A.** 9 nM

**Q.** What about the inhibition at 1 µM (human μ opioid receptor) of the same molecule?
**A.** 11%

**Q.** What about the “spontaneous locomotor activity (light-beam crossings, 30 min)” value ([3]; 15 mg/kg i.p.) of the same molecule?
**A.** no effect

**Q.** And the “spontaneous locomotor activity (light-beam crossings, 30 min)” value ([3]; 30 mg/kg i.p.)?
**A.** significantly altered

**Q.** What about the “von Frey paw withdrawal force, % of baseline” value ([4]; 10 mg/kg i.p., early phase (3 h after OXPT), OXPT alone 60.13%) of the same molecule?
**A.** 71.5%

**Q.** What about the “reversal of the effect of OXPT (von Frey)” value ([4]; 10 mg/kg i.p., late phase (7 days after OXPT)) of the same molecule?
**A.** not in late phase

**Q.** What about the “von Frey paw withdrawal force, % of baseline” value ([4]; 15 mg/kg i.p., early phase (3 h), OXPT alone 60.5%) of the same molecule?
**A.** 80.0%

**Q.** And the “von Frey paw withdrawal force, % of baseline” value ([4]; 15 mg/kg i.p., late phase (7 days), OXPT alone 57.4%)?
**A.** 79.4%

**Q.** And the “von Frey paw withdrawal force, % of baseline” value ([4]; 30 mg/kg i.p., early phase (3 h), OXPT alone 57.9%)?
**A.** 97.9%

**Q.** And the “von Frey paw withdrawal force, % of baseline” value ([4]; 30 mg/kg i.p., late phase (7 days), OXPT alone 60.6%)?
**A.** 87.9%

**Q.** And the IC50 (hMAO B)?
**A.** 240 nM

**Q.** What about the “mutagenicity in the AMES test” value [5] of the same molecule?
**A.** non-mutagenic

**Q.** What about the “paw withdrawal latency (thermal), % of baseline” value ([6]; 15 mg/kg, 1 h after carrageenan) of the same molecule?
**A.** 100.8%

**Q.** And the “paw withdrawal latency (thermal), % of baseline” value ([6]; 15 mg/kg, 2 h after carrageenan)?
**A.** 122.6%

**Q.** What about the “paw withdrawal latency (thermal), % of baseline” value ([6]; 15 mg/kg, 3 h after carrageenan) of the same molecule?
**A.** 122.6%

**Q.** And the “paw withdrawal latency (thermal), % of baseline” value ([6]; 30 mg/kg, 1 h after carrageenan)?
**A.** 130.3%

**Q.** What about the “paw withdrawal latency (thermal), % of baseline” value ([6]; 30 mg/kg, 2 h after carrageenan) of the same molecule?
**A.** 114.8%

**Q.** And the “paw withdrawal latency (thermal), % of baseline” value ([6]; 30 mg/kg, 3 h after carrageenan)?
**A.** 126.6%

**Q.** And the Ki [7]?
**A.** 34 nM and 33.9 nM
